Read-outs that look alike come from different tables or passages of the source.
How the values were obtained:
Myzus persicae = Myzus persicae - spray test (Chinese cabbage leaf discs); assay type: in vivo; conditions: application rate 500 g/ha, after 6 days; for pest or weed control at 500 g/ha: Myzus persicae, foliar, 144 h, read-out: efficacy (aphids killed)
Procedure: Myzus persicae—Spray Test
Solvent: 78 parts by weight of acetone • • 1.5 parts by weight of dimethylformamide
Emulsifier: alkylaryl polyglycol ether
To produce further test concentrations, the preparation is diluted with emulsifier-containing water.
After 6 days, the efficacy in % is determined 100% means that all the aphids have been killed; 0% means that none of the aphids have been killed.

[1] = log P by HPLC on reversed-phase C18 columns (OECD Guideline 117); method [a] acidic pH 2.7, method [b] neutral pH 7.8; assay type: physicochemical; conditions: for chromatographic logP: reversed-phase C18 HPLC column
[2] = HPLC reversed-phase C18, method [a] acidic pH 2.7, read-out: logP[a]
[3] = HPLC reversed-phase C18, method [b] neutral pH 7.8, read-out: logP[b]
[4] = HPLC reversed-phase C18, method [a] acidic pH 2.7
[5] = HPLC reversed-phase C18, method [b] neutral pH 7.8

chromatographic logP [1, 2] | chromatographic logP [1, 3] | Structure (SMILES) | pest or weed control at 500 g/ha (Myzus persicae) | efficacy (aphids killed) (Myzus persicae) | logP[a] [1, 4] | logP[b] [1, 5]
2.06 | 2.01 | Cc1cc(C)c([S+]([O-])CC(F)(F)F)cc1-n1cnc2nc(-c3cccnc3)sc2c1=O (stereo not drawn) [Compound 50, 6-{2,4-Dimethyl-5-[(2,2,2-trifluoroethyl)sulphinyl]phenyl}-2-(pyridin-3-yl)[1,3]thiazolo[4,5-d]pyrimidin-7(6H)-one] | 100% | – | – | –
– | – | O=c1c2sc(-c3cccnc3)nc2ncn1-c1cc(SCC(F)(F)F)c(Cl)cc1Cl [Compound 51] | – | 100% | 3.25 | 3.17
– | – | CN(C)C(=O)CSc1cccc(-n2cnc3nc(-c4cccnc4)sc3c2=O)c1 [Compound 52] | – | 90% | 1.57 | 1.55
1.9 | 1.91 | Cc1cc(F)c(-n2cnc3nc(-c4cccnc4)sc3c2=O)cc1SCC(=O)N(C)C [Compound 54, 2-({4-Fluoro-2-methyl-5-[7-oxo-2-(pyridin-3-yl)[1,3]thiazolo[4,5-d]pyrimidin-6(7H)-yl]phenyl}sulphanyl)-N,N-dimethylacetamide] | 100% | – | – | –
1.38 | 1.38 | Cc1cc(F)c(-n2cnc3nc(-c4cccnc4)sc3c2=O)cc1[S+]([O-])CC(=O)N(C)C (stereo not drawn) [Compound 55, 2-({4-Fluoro-2-methyl-5-[7-oxo-2-(pyridin-3-yl)[1,3]thiazolo[4,5-d]pyrimidin-6(7H)-yl]phenyl}sulphinyl)-N,N-dimethylacetamide] | 90% | – | – | –
3.25 | 3 | Cc1cc(F)c(-n2c(C)nc3nc(-c4cccnc4)sc3c2=O)cc1SCC(F)(F)F [Compound 56, 6-{2-Fluoro-4-methyl-5-[(2,2,2-trifluoroethyl)sulphanyl]phenyl}-5-methyl-2-(pyridin-3-yl)[1,3]thiazolo[4,5-d]pyrimidin-7(6H)-one] | 90% | – | – | –
3.45 | 3.32 | Cc1cc(F)c(-n2nnc3nc(-c4cccnc4)sc3c2=O)cc1SCC(F)(F)F [Compound 58, 3-{2-Fluoro-4-methyl-5-[(2,2,2-trifluoroethyl)sulphanyl]phenyl}-6-(pyridin-3-yl)[1,3]thiazolo[4,5-d][1,2,3]triazin-4(3H)-one] | 90% | – | – | –
2.4 | 2.35 | Cc1cc(F)c(-n2nnc3nc(-c4cccnc4)sc3c2=O)cc1[S+]([O-])CC(F)(F)F (stereo not drawn) [Compound 59, 3-{2-Fluoro-4-methyl-5-[(2,2,2-trifluoroethyl)sulphinyl]phenyl}-6-(pyridin-3-yl)[1,3]thiazolo[4,5-d][1,2,3]triazin-4(3H)-one] | 90% | – | – | –
– | – | CCSc1ccc(-n2cnc3nc(-c4cccnc4)sc3c2=O)cc1 [Compound 60] | – | 100% | 2.41 | 2.45
– | – | CC[S+]([O-])c1ccc(-n2cnc3nc(-c4cccnc4)sc3c2=O)cc1 (stereo not drawn) [Compound 61] | – | 100% | 1.10 | 1.22
– | – | Cc1cc(SC(F)(F)F)ccc1-n1cnc2nc(-c3cccnc3)sc2c1=O [Compound 64] | – | 100% | 2.91 | 2.89
– | – | CCSc1ccccc1-n1cnc2nc(-c3cccnc3)sc2c1=O [Compound 66] | – | 100% | 2.20 | 2.21
– | – | CC[S+]([O-])c1ccccc1-n1cnc2nc(-c3cccnc3)sc2c1=O (stereo not drawn) [Compound 67] | – | 90% | 1.28 | 1.29
– | – | CSc1cc(-n2cnc3nc(-c4cncc(F)c4)sc3c2=O)ccc1C [Compound 70] | – | 100% | 2.82 | 2.75
– | – | Cc1cc(C)c(-n2cnc3nc(-c4cncc(F)c4)sc3c2=O)cc1SCC(F)(F)F [Compound 71] | – | 90% | 3.64 | 3.34

— patent US10294243B2, “Bicyclic compounds as pesticides” (BAYER CROPSCIENCE AKTIENGESELLSCHAFT, priority 2014, dated 2019)
